Assays:
myofibroblast formation = settings: animal studies of capsular contracture with breast implants; cited from earlier work
[1] = given preoperatively
fibrinolysis = experiment: tranexamic acid concentrations effective against fibrinolysis; settings: relative to doses used in the non-GLP acute porcine study

| time to reach plasma concentrations [1] | Structure (SMILES) | myofibroblast formation (myofibroblast formation) | dose effective in reversing fibrinolysis (fibrinolysis) |
| --- | --- | --- | --- |
| – | O=S(=O)([O-])CCS.[Na+] [MESNA, sodium 2-mercaptoethane sulfonate] | diminish myofibroblast formation | – |
| 5 to 15 min | NC[C@H]1CC[C@H](C(=O)O)CC1 [tranexamic acid] | – | one tenth of the doses used in the non-GLP acute porcine study |

Reference: patent US11191878B2, “Kits for local delivery of water soluble agents and methods of use” (priority 2017, dated 2021)
